From patent US20060026702A1, “Phosphoinositide 3-kinase mediated inhibition of GPCRs” (DUKE UNIVERSITY, priority 2002, published 2006)
One block for each compound: values may come before it.

Columns and labels:
β2AR = β2AR sequestration in HEK-293 cells by 125I-Cyanopindolol binding; type: cell-based; conditions: 1 μM isoproterenol; LY294002 100 μM 15 min before
Description: Determination of β2AR Sequestration in HEK-293 Cells by ^125I-Cyanopindolol (CYP) Binding—β2AR sequestration was performed as previously described. Briefly, HEK-293 cells were plated at a density of 2.5×10^6 cells/dish and transfected the following day with plasmids containing either the β2AR (150-250 ng), β2AR (250 ng) and HEAT domain (4 μg), PI3Kγ (4.0 μg) or ΔPI3Kγ (4.0 μg) cDNAs. Twelve hours after transfection cells were split into six well Falcon plates at a density of 750,000 cells/well. […] To determine the amount of internalized receptor, 100 μl aliquots of whole cells were added to 150 μl of binding buffer (75 mM Tris-HCl, 10 mM MgCl2, 5 mM EDTA (pH 7.5)). Total binding was determined in the presence of 175 pM ^125I-CYP alone, the number of internalized receptors were determined by using 175 pM ^125I-CYP plus 100 nM CGP12177, and non-specific binding was determined using 175 pM ^125I-CYP plus 1 μM propranolol. Sequestration was calculated as the ratio of (specific receptor binding of ^125I-CYP in the presence of CGP12177)/(specific receptor binding of ^125I-CYP in the absence of CGP12177).

PI3K = target: T1, PI3K (Homo sapiens, UniProt P48736, DEL30-30/Q459R); experiment: βARK1 associated PI3K activity (lipid kinase assay) in transfected NIH-3T3 cells; type: cell-based, Mouse; conditions: 10 μM isoproterenol, 2 min; cells co-transfected with βARK1 and HA-PI3Kγ
T1 construct: expressed in transfected cells; host or cells: NIH-3T3
Description: Cell Culture—Mouse NIH-3T3 and HEK293 cells were maintained in either Iscoves modified Dulbecco's medium or minimal essential medium (MEM) supplemented with 10% fetal bovine serum and 1:100 penicillin-streptomycin (10,000 U/ml) at 37° C. Cells were seeded at a density of ˜1-3×10^5 cells/35 mm^2 dish and at 70-80% confluence were transiently transfected using the transfection reagent FUGENE6 (ROCHE) or calcium phosphate precipitation. Cells were harvested 24 hours after transfection, re-plated in triplicate, allowed to grow overnight and serum starved for 2-4 hours before agonist stimulation.
Cytosolic and Membrane Fractionation—Cell monolayers were scraped in 1 ml of buffer containing 25 mM Tris-HCl (pH 7.5), 5 mM EDTA, 5 mM EGTA, 1 mM phenylmethylsulfonyl fluoride, 2 μg/ml each of leupeptin and aprotinin and disrupted further by using Dounce homogenizer. Intact cells and nuclei were removed by-centrifugation at 1,000×g for 5 min. The collected supernatant was further subject to a centrifugation at 38,000×g for 25 min. The pellet was resuspended in lysis buffer (1% Nonidet P-40, 10% glycerol, 137 mM NaCl, 20 mM Tris-Cl (ph 7.4), 1 mM phenylmethylsulfonyl fluoride, 20 mM NaF, 1 mM sodium pyrophosphate, 1 mM sodium orthovanadate and 2 μg/ml each of aprotinin and leupeptin) and used as membrane fraction and the supernatant was diluted in lysis buffer and used as the cytosolic fraction.
Lipid Kinase Assays—Cells were lysed in lysis buffer and 2 mg cytosolic extract was used for immunoprecipitation with either the C5/1 monoclonal antibody directed against βARK1, the anti-FLAG M2 monoclonal antibody (Sigma) or antibodies to p110γ, or p110β (Santa Cruz Biotechnology) and protein G-agarose. Sedimented beads were then washed once with 1 ml of lysis buffer, thrice with 1 ml of phosphate-buffered saline (1× phosphate-buffered saline, 1% NP-40 and 100 μM sodium orthovanadate), thrice with 1 ml of Tris/LiCl (100 mM Tris-HCl (pH 7.4), 5 mM LiCl and 100 μM sodium orthovanadate) and twice with TNE (10 mM Tris Cl (pH 7.4), 150 mM NaCl, 5 mM EDTA and 100 μM sodium orthovanadate). Samples were then resuspended in 50 ml of TNE and 10 μl of 100 mM MgCl2 was added to each sample. The substrate, phosphatidylinositol (PI, Avanti), was prepared by drying 50 μl of the 10 mg/ml stock (PI in chloroform) in an eppendorf tube with a stream of air and adding 250 μl of TE (10 mM Tris Cl (pH 7.4) and 1 mM EDTA). The PI was then suspended by sonication in an ice bath for 3 minutes. 10 p, of the PI solution and 11 μl of ATP solution (440 μM cold ATP and 1 μCi/μl of [γ-32P]ATP) were added to each sample. […] Autoradiography of dried plates was used to detect signals, and PIP was quantified by phosphorimaging. […] Values are expressed as fold increase/decrease relative to wild-type/control.

β2AR complex = experiment: Recruitment of AP-2 adaptin and clathrin to the agonist-stimulated β2AR complex (immunoprecipitation, immunoblot); type: cell-based; conditions: saponin-permeabilized cells, isoproterenol 5 min; compared to similar concentration of Ptdlns (4,5) P2
Description: Immunoblotting and Detection—Immunoblotting and detection of PI3K, βARK1, HA-PI3Kγ, HA-ΔPI3Kγ, Myc-PI3Kα, FLAG-HEAT, PI3KΔHEAT-HA, FLAG-β2AR, HA-β2AR, β-adaptin and clathrin was carried out as previously described. Immunoprecipitating antibodies were added to 500 μg of cell lysate in lysis buffer followed by the addition of 35 μl of 1:1 Protein A- or G-agarose. Samples were rocked overnight at 4° C. then centrifuged at 12,000×g for 5 min. Immunoprecipitates were washed twice with lysis buffer, twice with 1×PBS and resuspended in 1×SDS-gel loading buffer. Proteins were resolved by SDS-polyacrylamide gel electrophoresis and blotted on to PVDF membrane (Bio-Rad). Blots were incubated with antibodies recognizing PI3K, Myc (Santa-Cruz), β-adaptin, clathrin heavy chain (BD Transduction Laboratories), HA (Roche Molecular Biochemicals) and FLAG (Sigma) at 1:2000 dilution and the βARK1 monoclonal antibody at 1:10,000 dilution. Blots were subsequently incubated with appropriate secondary antibody (1:2000 dilution) conjugated to horseradish peroxidase (Amersham Pharmacia Biotech) and detection was carried out using enhanced chemiluminescence. […]
The present inventors determined that βARK1-mediated localization of PI3K within the activated receptor complex is responsible for the generation of D-3 phosphatidylinositols necessary for the efficient recruitment of adaptin to the P2AR complex. […]

T1 sequence (P48736 with tags, fused parts or gaps DEL30-30/Q459R): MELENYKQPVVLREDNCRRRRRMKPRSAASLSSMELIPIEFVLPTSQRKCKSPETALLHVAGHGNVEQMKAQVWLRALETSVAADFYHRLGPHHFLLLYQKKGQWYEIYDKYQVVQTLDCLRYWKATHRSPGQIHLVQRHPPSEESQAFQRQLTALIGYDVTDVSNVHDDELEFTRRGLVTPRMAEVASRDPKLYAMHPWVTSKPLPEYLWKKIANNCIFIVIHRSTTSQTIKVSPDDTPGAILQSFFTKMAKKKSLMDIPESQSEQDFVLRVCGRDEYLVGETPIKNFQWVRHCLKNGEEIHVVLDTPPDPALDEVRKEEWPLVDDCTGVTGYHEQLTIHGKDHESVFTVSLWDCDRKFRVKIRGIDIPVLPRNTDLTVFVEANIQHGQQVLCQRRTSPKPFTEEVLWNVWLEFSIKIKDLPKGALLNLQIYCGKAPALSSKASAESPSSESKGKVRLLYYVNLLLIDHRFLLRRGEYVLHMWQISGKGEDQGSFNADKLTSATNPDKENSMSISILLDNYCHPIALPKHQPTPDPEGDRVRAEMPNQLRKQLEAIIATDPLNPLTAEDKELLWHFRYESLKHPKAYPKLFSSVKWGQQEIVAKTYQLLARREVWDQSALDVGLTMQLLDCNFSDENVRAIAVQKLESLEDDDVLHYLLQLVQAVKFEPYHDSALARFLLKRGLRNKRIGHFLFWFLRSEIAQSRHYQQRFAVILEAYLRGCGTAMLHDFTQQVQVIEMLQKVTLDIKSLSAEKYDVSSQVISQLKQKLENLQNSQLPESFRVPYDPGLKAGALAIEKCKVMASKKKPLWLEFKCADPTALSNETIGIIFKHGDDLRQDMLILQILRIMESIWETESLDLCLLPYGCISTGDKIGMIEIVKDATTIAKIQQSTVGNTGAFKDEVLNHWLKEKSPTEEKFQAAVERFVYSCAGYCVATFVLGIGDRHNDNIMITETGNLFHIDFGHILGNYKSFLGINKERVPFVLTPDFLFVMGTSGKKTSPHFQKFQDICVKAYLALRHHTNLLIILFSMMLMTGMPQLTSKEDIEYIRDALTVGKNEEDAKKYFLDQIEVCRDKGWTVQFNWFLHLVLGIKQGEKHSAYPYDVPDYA

Compound: O=c1cc(N2CCOCC2)oc2c(-c3ccccc3)cccc12 [LY294002, reference compound]
- reduction in sequestration (β2AR): 50%

- βARK1 associated PI3K activity in the cytosolic fraction after agonist (PI3K): little change
- βARK1 associated PI3K activity in the membrane fraction after agonist (PI3K): significant increase
Compound: CC(C)NCC(O)c1ccc(O)c(O)c1 (stereo not shown) [isoproterenol, reference compound]

- efficiency of recruitment of adaptin to the receptor (β2AR complex): significantly enhanced
Compound: phosphatidylinositol 3,4,5-triphosphate [Ptdlns (3,4,5) P3, reference compound]
